# Laboratory results as given in US20090176839A1, “FORMULATIONS OF 3-(6-(1-(2,2-DIFLUOROBENZO[D][1,3]DIOXOL-5-YL) CYCLOPROPANECARBOXAMIDO)-3-METHYLPYRIDIN-2-YL)BENZOIC ACID” (priority 2007, published 2009).
# Legend:
# [1] = test system: dogs; assay: in vivo; settings: dog
# Description: (§1) One dog per gender was dosed orally with the vehicle (0.5% methylcellulose+0.5% Tween80 in water), or 25, 50, or 100 mg/kg/day Compound 1 for 7 consecutive days. The dose volume was 5 mL/kg/day for all dose groups. Plasma samples were collected on Days 1 and 7 for TK analysis and viability, clinical observations, body weights, feed consumption, clinical pathology (termination), organ weights, macroscopic observations, and microscopic pathology were evaluated.
# [2] = in vivo; set-up: species or system dogs; settings: both sexes, dog
# Description: as §1
structure (smiles),measurement,setting,value
"Cc1ccc(NC(=O)C2(c3ccc4c(c3)OC(F)(F)O4)CC2)nc1-c1cccc(C(=O)O)c1 [Compound 1, 3-(6-(1-(2,2-difluorobenzo[d][1,3]dioxol-5-yl)cyclopropanecarboxamido)-3-methylpyridin-2-yl)benzoic acid]","food consumption, hematologies, coagulations parameters, ECG measurements",[1],no effects
same,gross lesions and histopathological findings,[1],no test article related gross lesions or histopathological findings
same,body weight loss,[1]; 100 mg/kg/day,0.3 kg
same,NOAEL at 7 days,[2],100 mg/kg/day
